The target in this assay is T1, BRD9 protein (Homo sapiens, UniProt Q9H8M2).
T1 construct: endogenous in cells; host or cells: DU145 human prostate cancer cells grown as subcutaneous xenograft tumors in mice
T1 sequence (Q9H8M2 1-597): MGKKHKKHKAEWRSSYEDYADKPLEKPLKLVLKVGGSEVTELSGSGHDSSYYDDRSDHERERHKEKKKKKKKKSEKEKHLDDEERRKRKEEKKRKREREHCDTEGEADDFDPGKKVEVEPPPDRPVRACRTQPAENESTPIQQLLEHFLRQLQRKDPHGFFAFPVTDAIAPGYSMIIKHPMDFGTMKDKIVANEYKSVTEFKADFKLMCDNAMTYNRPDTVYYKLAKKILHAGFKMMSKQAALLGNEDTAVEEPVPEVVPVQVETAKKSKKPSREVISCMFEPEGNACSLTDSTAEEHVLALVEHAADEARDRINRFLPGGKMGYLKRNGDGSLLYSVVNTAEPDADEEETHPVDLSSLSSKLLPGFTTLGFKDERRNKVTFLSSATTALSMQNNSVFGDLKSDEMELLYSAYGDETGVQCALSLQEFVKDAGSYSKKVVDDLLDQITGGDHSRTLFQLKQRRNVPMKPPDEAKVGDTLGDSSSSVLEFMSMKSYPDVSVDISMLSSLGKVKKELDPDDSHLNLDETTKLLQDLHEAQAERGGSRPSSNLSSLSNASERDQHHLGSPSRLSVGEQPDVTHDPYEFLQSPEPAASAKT
As to the kind of experiment: BRD9 levels in DU145 tumors by Western Blotting (PK/PD cohort). Conditions: for BRD9 protein degradation (Western Blot): 72 h post last dose, P<0.05 vs. vehicle control. In kind it is in vivo. As to the method: Procedure: The experimental details of the studies, including tumor model, mouse strain, cell number implanted, vehicle used, days of treatment, treatment details, and average tumor size at start of dosing are outlined in Table 3. All study mice were obtained and the studies were conducted at Pharmaron. Each mouse was inoculated subcutaneously on the right flank with the single cell suspension of DU145 human prostate cancer tumor cells (5×10^6) in 0.1 mL with Matrigel (1:1) in MEM with 10% FBS for tumor development.
Based on tumor volume, mice were randomly assigned to respective groups using a computer-generated randomization procedure. The study groups and the number of animals per group are shown in Table 4A (efficacy study) and Table 4B (PKPD study).
Treatment for the PKPD cohort was initiated when the mean tumor volume reached 281 mm^3 on Day 14 post tumor cell inoculation. Animals were randomized into 5 groups: 1) Vehicle Control, 3 doses intraperitoneally (IP); 2) Compound 1 at 1 mg/kg, single dose IP; 3) Compound 1 at 15 mg/kg, single dose IP; 4) Compound 1 at 1 mg/kg, 3 doses IP; and 5) Compound 1 at 15 mg/kg, 3 doses IP.
In the case of an animal reaching a tumor size exceeding 2000 mm^3, the entire group was terminated. Plasma and tumor samples were collected at 4 hours and 72 hours post last dose for all groups. For the PKPD Cohort, the tumors were cut into 2 pieces: one for Western Blotting (WB) with BRD9 analysis, and one for RNAseq analysis. For the Efficacy Cohort, the tumors were analyzed for BRD9 levels by Western Blotting (WB).

On to `COc1cc(-c2cn(C)c(=O)c3cnc(N4CCC4)cc23)cc(OC)c1CN1CCC(CN2CCC3(CC2)CN(c2ccc4c(c2)C(=O)N(C2CCC(=O)NC2=O)C4)C3)CC1` (stereo not drawn) [Compound 1, 3-(6-(7-((1-(4-(6-(azetidin-1-yl)-2-methyl-1-oxo-1,2-dihydro-2,7-naphthyridin-4-yl)-2,6-dimethoxybenzyl)piperidin-4-yl)methyl)-2,7-diazaspiro[3.5]nonan-2-yl)-1-oxoisoindolin-2-yl) piperidine-2,6-dione], for which the “BRD9 protein degradation (Western Blot)” value by setting is: (15 mg/kg single dose IP) “statistically and significantly degrade BRD9 protein”; (15 mg/kg three doses IP) “statistically and significantly degrade BRD9 protein”. Also, where the note is “DU145 AR-negative prostate CDX model”, the “correlation of plasma PK with in vivo BRD9 degradation” value was “positively corelates”.

These data come from patent publication US20250255857A1, “METHODS OF TREATING ANDROGEN RECEPTOR-INDEPENDENT PROSTATE CANCER” (FOGHORN THERAPEUTICS INC., priority 2022, published 2025).
